According to patent US20250312469A1 (CANGET BIOTEKPHARMA, priority 2024, published 2025):
Where “and” joins values, the source holds several entries; their conditions need not be identical. Identical values can stand only once.

Experiments:
[1] = test system: pancreatic cancer PDX tumor (PDX14244) tissues; assay: Ex vivo culture of pancreatic cancer PDX tumor tissue; assay type: cell-based, human; details: 7 days
From the text: Pancreatic cancer patient-derived xenograft (PDX) tumor (PDX14244) in vitro culture and studies: PDX14244 tumors were collected from SCID mice, and the isolated tumors were maintained in PBS solution. Then cut the fresh tumor tissues into many small pieces (e.g., 2×2×2 mm) and the left tumors were frozen for other use. The small pieces of tumor tissues were washed twice in PBS and then added onto the stiff gel prepared at the ratio of gel: PBS=1:1 in the 24-well plate (2-3 pieces per well). […] On day 3, replace the old medium content with freshly prepared same medium content. On day 7, the cultured PDX14244 tumor tissues were taken out and representative images were taken under microscopes, and the tumor tissues were transferred into a fresh 24-well plate and immediately fixed in 10% neutral buffered formalin (NBF) for 24 hours ad then replaced NBF with 70% ethanol for 1-4 days for paraffin embedding to make block cassettes for histology analysis. Tissue blocks were cut and H&E staining for tumor tissue stroma ECM stiffness (desmoplasia) observation.

SK-ES-1 OS tumors = assay: SK-ES-1 osteosarcoma xenograft; assay type: in vivo, SCID mice; details: weekly×4
From the text: The SK-ES-1 OS cells (2×10^6 per tumor site) mixed with 50% Matrigel were subcutaneously injected into 2-3 SCID mice in the flank area to establish xenograft tumors. The established OS tumors were implanted into experimental SCID mice for drug efficacy studies. […] The schedule and route were weekly×4 via oral (p.o.) administration (arrowed). Each tumor curve is the mean tumor size+SD from 2-4 SCID mice. […] Each body weight change curve is the mean body weight change+SD from 2-4 SCID mice.

Panc-1 and BxPC-3 cells = assay: Cell attachment after FL118 pretreatment; assay type: cell-based, human; details: 24 h pretreatment, reseeded
Method: The harvested cells were then reseeded at an expected 30-60% confluence if all cell attached to the cell cultural dish. […] Representative cell attachment images were taken 4-16 hours dependent on control cell attachment speed after cell seeding. Quantitative analysis of non-attached cell numbers was documented in parallel for each condition.

[2] = test system: L5178Y TK+/− mouse lymphoma cells; assay: Mouse Lymphoma Assay (MLA); details: for Avg. ACE / Avg. MF / Avg. RTG / Avg. SG: 4 h summary
Method: The cells were prepared in Fischer's or RPMI media supplemented with 10% heat-inactivated horse serum, penicillin-streptomycin, Lglutamine, sodium pyruvate and Pluronic F68. In the initial assay, prior to use in the test, the culture was purged of preexisting TK−/− mutations by exposure to THMG treated medium for 1 day, followed by a transfer to THG medium for 1 to 2 days. This was performed 5 to 8 days prior to testing. In the expanded assay a vial of frozen cells was thawed and used within 5 to 8 days of growth. No washing was needed because the cells were purged of preexisting TK−/− mutations by exposure to THMG treated medium for 1 day and then THG medium for 1 day prior to freezing. […] Colonies were counted using an automated colony counter or manually. After 4 or 24 hours of exposure, the cells were grown for recovery and expression for approximately 48 hours before plated in TFT cloning media. A second set of plates were prepared without TFT to assess viability of cells following treatment. […] Colonies observed on the TFT plate were defined as small or large colonies. […] (3) Of note, the metabolic activation system in this assay consisted of a rat liver homogenate (S-9 microsomal fraction), which was delivered to the test system in the presence of a core mix consisting of NADP and cofactors for NADPH-supported oxidation. The S9 was prepared using the following recipe (per treatment tube); 1 mL of 20 mg/mL S9, 32 mg of NADP, 60 mg of isocitric acid, 40 μL of calcium chloride (CaCl2) and 3.0 mL of cell cultural media. All treatments were performed in duplicate. The treatment tubes were placed in a CO2 incubator at 37±1° C. with continuous agitation.

DDX5 = DDX5 (Homo sapiens, UniProt P17844); assay: Immunoprecipitation/Western blot of DDX5 in Mia Paca-2 and SW620 cells; assay type: cell-based; set-up: endogenous in cells; Mia Paca-2 and SW620 (IP/Western)
Method: Up to 10^7 cells for each time point/test were harvested with a scraper in cold PBS buffers and collected by centrifugation at 1000g×5 min and washed with cold PBS once. Cell pellets were lysed in 1 mL cold RIPA lysis buffer containing proteinase inhibitors (refer to Western blots). The cell lysates were precleared with centrifuging 14,000 rpm for 15 min. The resulting supernatants were transferred to a new 1.5 ml tube and incubated with up to 3 μg either DDX5 antibodies or normal IgG antibodies for 1 h at 4° C., followed by incubation with 20-40 μL 50% protein A/G-Agarose slurry overnight at 4° C. on a rocker platform. […]
For frozen prostate cancer tissue specimens and their adjacent non-tumor tissues (if any) obtained from Roswell Park pathology network, 30-50 mg of each tissue in a 1.5 Eppendorf tube containing 500 μL of 2×SDS lysis buffer containing Tris pH 6.8+4% SDS+10% Glycerol were homogenized through ultrasound treatment for 10-15 second per time with 3-6 times until tumor tissue was lysed. […] Proteins of interest were detected using Western Lightning ECL-Plus (Perkin Elmer, Waltham, MA) and visualized by various times (3-120 seconds) of exposure. Actin, tubulin and/or GAPDH were detected as the internal control to normalize total protein loading for each sample.

Chain of DDX5 (P17844 whole entry): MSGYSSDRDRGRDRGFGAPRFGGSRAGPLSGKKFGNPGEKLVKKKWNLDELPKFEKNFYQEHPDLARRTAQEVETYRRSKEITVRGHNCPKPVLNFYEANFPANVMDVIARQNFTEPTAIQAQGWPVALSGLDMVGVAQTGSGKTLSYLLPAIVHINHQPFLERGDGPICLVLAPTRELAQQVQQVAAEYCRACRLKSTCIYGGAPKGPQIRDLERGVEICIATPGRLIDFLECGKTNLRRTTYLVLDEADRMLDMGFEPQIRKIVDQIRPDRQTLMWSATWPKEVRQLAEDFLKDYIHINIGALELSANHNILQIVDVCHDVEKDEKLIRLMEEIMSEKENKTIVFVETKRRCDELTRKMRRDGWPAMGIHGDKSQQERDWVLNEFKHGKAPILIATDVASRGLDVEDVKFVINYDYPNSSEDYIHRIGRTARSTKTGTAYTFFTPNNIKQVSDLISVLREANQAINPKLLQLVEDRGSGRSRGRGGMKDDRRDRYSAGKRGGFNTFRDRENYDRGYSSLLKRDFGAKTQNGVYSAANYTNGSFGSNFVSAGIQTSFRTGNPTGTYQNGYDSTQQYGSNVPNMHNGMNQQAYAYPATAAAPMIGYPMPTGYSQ

CCC1(O)C(=O)OCc2c1cc1n(c2=O)Cc2cc3cc4c(cc3nc2-1)OCO4 (centres unmarked) [FL118]
cell and stroma spreading from tissue edge [1]: effectively inhibit the pancreatic cancer cells and stroma spreading | tumor stroma intensity (H&E) [1]: significantly tumor stroma intensity loose | antitumor efficacy (SK-ES-1 OS tumors): effectively eliminated human osteosarcoma xenograft tumors | cell attachment (Panc-1 and BxPC-3 cells): exhibited cell attachment defect | concentrations considered unable to induce mutation ([2]; 4-hour +S9): ≤ 0.32 µM | concentrations considered positive (mutagenic/clastogenic) ([2]; 4-hour -S9): > 0.1 µM | concentrations considered unable to induce mutation ([2]; 4-hour -S9): ≤ 0.032 µM | Average SG ([2]; 4 h, +S9, 0.1 uM): 12.9 | Day 1 Growth Cell Conc. ([2]; 4 h, +S9, 0.1 uM): 6.71E+05 Cell/mL and 7.82E+05 Cell/mL | Day 2 Growth Cell Conc. ([2]; 4 h, +S9, 0.1 uM): 1.55E+06 Cell/mL and 1.64E+06 Cell/mL | Suspension Growth (SG) ([2]; 4 h, +S9, 0.1 uM): 11.4 and 14.3 | Average SG ([2]; 4 h, +S9, 1 uM): 10.7 | Day 1 Growth Cell Conc. ([2]; 4 h, +S9, 1 uM): 7.55E+05 Cell/mL and 6.56E+05 Cell/mL | Day 2 Growth Cell Conc. ([2]; 4 h, +S9, 1 uM): 1.27E+06 Cell/mL and 1.45E+06 Cell/mL | Suspension Growth (SG) ([2]; 4 h, +S9, 1 uM): 10.5 and 10.8 | concentrations considered positive (mutagenic/clastogenic) ([2]; 4 hour +S9): > 1.0 µM | Avg. ACE ([2]; +S9, 0.1 uM): 82.5% | Avg. MF ([2]; +S9, 0.1 uM): 71 ×10^−6 | Avg. RTG ([2]; +S9, 0.1 uM): 98.8% | Avg. SG ([2]; +S9, 0.1 uM): 12.9 | Avg. ACE ([2]; +S9, 1 uM): 62.3% | Avg. MF ([2]; +S9, 1 uM): 231 ×10^−6 | Avg. RTG ([2]; +S9, 1 uM): 81.5% | Avg. SG ([2]; +S9, 1 uM): 10.7 | Average SG ([2]; 24 h, 0.001 uM): 66.2 | Suspension Growth (SG) ([2]; 24 h, 0.001 uM): 55.8 and 65.5 | Average SG ([2]; 24 h, 0.1 uM): 29.1 | Suspension Growth (SG) ([2]; 24 h, 0.1 uM): 29.0 and 29.1 | concentrations considered positive (mutagenic/clastogenic) ([2]; 24 hour -S9): ≥ 0.1 µM | concentrations considered unable to induce mutation ([2]; 24 hour -S9): ≤ 0.032 µM | DDX5 phosphorylation on tyrosine (DDX5; 6h): eliminates DDX5 phosphorylation | DDX5 protein (DDX5; 24h): inhibits DDX5 proteins
